In patent US8143242B2, “Malonamide derivatives with antithrombotic activity” (Sanofi-Aventis, priority 2007, dated 2012) one finds Ki data, which are given here for 20 compounds.

Where a name gives a salt, the structure may show the parent alone.

In the assay the target is T1, human factor VIIa and TF (factor VIIa/tissue factor) (Homo sapiens, UniProt P08709).
T1 construct: human factor VIIa and TF
T1 sequence (P08709 213-466 limits assumed): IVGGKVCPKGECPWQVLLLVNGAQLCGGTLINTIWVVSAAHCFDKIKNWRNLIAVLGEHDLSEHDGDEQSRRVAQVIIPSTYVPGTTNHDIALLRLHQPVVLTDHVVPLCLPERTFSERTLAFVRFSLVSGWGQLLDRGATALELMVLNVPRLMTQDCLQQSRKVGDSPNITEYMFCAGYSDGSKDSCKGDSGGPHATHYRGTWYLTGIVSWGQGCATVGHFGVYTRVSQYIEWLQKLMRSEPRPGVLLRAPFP
T1 sequence (P08709 61-212 limits assumed): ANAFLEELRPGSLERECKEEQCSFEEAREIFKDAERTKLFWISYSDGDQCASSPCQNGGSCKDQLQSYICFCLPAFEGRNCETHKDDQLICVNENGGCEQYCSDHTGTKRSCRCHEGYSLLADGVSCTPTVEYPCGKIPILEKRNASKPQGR
T1 sequence (P13726 33-295 partner): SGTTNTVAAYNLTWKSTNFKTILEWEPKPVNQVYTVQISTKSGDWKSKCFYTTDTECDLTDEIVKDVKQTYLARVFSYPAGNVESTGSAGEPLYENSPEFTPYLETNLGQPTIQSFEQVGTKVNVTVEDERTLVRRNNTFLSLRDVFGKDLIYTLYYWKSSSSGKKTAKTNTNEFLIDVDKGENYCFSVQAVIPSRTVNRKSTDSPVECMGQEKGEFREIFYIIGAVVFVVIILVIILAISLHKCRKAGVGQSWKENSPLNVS
Kind of assay: Factor VIIa (FVIIa) chromogenic assay. It counts as biochemical. The settings on record: chromogenic substrate S-2288 500 μM; 5 nM FVIIa, 10 nM TF; 25° C.; 15 minute preincubation; pH 8.15. Here is the method:
The ability of the compounds of the formulae I and Ia to inhibit factor VIIa or other enzymes like factor Xa, thrombin, plasmin, or trypsin can be assessed by determining the concentration of the compound of the formulae I and Ia that inhibits enzyme activity by 50%, i. e. the IC50 value, which is related to the inhibition constant Ki. Purified enzymes are used in chromogenic assays. The concentration of inhibitor that causes a 50% decrease in the rate of substrate hydrolysis is determined by linear regression after plotting the relative rates of hydrolysis (compared to the uninhibited control) versus the log of the concentration of the compound of formulae I and Ia. For calculating the inhibition constant Ki, the IC50 value is corrected for competition with substrate using the formula Ki=IC50/{1+(substrate concentration/Km)} wherein Km is the Michaelis-Menten constant (Chen and Prusoff, Biochem. Pharmacol. 22 (1973), 3099-3108; I. H. Segal, Enzyme Kinetics, 1975, John Wiley & Sons, New York, 100-125; which are incorporated herein by reference).
Factor VIIa (FVIIa) Assay
The inhibitory activity (expressed as inhibition constant Ki(FVIIa)) of the compounds of formulae I and Ia towards factor VIIa/tissue factor activity was determined using a chromogenic assay essentially as described previously (J. A. Ostrem et al., Biochemistry 37 (1998) 1053-1059 which is incorporated herein by reference). Kinetic assays were conducted at 25° C. in half-area microtiter plates (Costar Corp., Cambridge, Ma.) using a kinetic plate reader (Molecular Devices Spectramax 250). A typical assay consisted of 25 μl human factor VIIa and TF (5 nM and 10 nM, respective final concentration) combined with 40 μl of inhibitor dilutions in 10% DMSO/TBS-PEG buffer (50 mM Tris, 15 mM NaCl, 5 mM CaCl2, 0.05% PEG 8000, pH 8.15). Following a 15 minute preincubation period, the assay was initiated by the addition of 35 μl of the chromogenic substrate S-2288 (D-Ile-Pro-Arg-p-nitroanilide, Pharmacia Hepar Inc., 500 μM final concentration).
Broadly, the Ki is a measure of affinity in units of concentration, obtained from inhibition or displacement. Higher therefore signals lower affinity. Regarding `COCCN(C)S(=O)(=O)c1ccc([C@H](C)NC(=O)CC(=O)Nc2ccc(C(=N)N)cc2)cc1C(F)(F)F` [Example 76], the Ki was found to be 27 nM.

`COC1CCC(Oc2ccc(C(C)NC(=O)CC(=O)Nc3ccc(C(=N)N)cc3)cc2C(F)(F)F)CC1` (centres unmarked) [Example 50] displayed a Ki of 80 nM.

Take `C[C@H](NC(=O)CC(=O)Nc1ccc(C(=N)N)cc1)c1ccc(Oc2cncc(C(=O)O)c2)c(Br)c1` [Example 1, 5-(2-Bromo-4-{(S)-1-[2-(4-carbamimidoyl-phenylcarbamoyl)-acetylamino]-ethyl}-phenoxy)-nicotinic acid*acetic acid salt]: the inhibition constant (Ki) amounted to 41 nM.

For the compound `CC(NC(=O)CC(=O)Nc1ccc(C(=N)N)cc1)c1ccc(Oc2cccc(CO)c2)c(Br)c1` (centres unmarked) [Example 2, N-{1-[3-Bromo-4-(3-hydroxymethyl-phenoxy)-phenyl]-ethyl}-N′-(4-carbamimidoyl-phenyl)-malonamide*trifluoro-acetic acid salt], affinity was put at a Ki of 171 nM.

Compound `COCCNS(=O)(=O)c1ccc([C@H](C)NC(=O)CC(=O)Nc2ccc(C(=N)N)cc2)cc1C(F)(F)F` [Example 75] had an inhibitory constant (Ki) of 37 nM.

In turn, `CC(NC(=O)CC(=O)Nc1ccc(C(=N)N)cc1)c1ccc(OCc2ccoc2)c(Br)c1` (centres unmarked) [Example 52] came in with an inhibition constant Ki of 87 nM.

`CC(NC(=O)CC(=O)Nc1ccc(C(=N)N)cc1)c1ccc(S(=O)(=O)N2CCOCC2)c(C(F)(F)F)c1` (centres unmarked) [Example 28, N-(4-Carbamimidoyl-phenyl)-N′-{1-[4-(morpholine-4-sulfonyl)-3-trifluoromethyl-phenyl]-ethyl}-malonamide*trifluoro-acetic acid salt] showed a Ki of 55 nM.

`C[C@H](NC(=O)CC(=O)Nc1ccc(C(=N)N)cc1)c1ccc(OC2CCOCC2)c(-c2ccc(Cl)s2)c1` [Example 113]: the Ki was 7 nM.

For `CC(NC(=O)CC(=O)Nc1ccc(C(=N)N)cc1)c1ccc(S(=O)(=O)c2ccncc2)c(C(F)(F)F)c1` (centres unmarked) [Example 74, N-(4-Carbamimidoyl-phenyl)-N′-{1-[4-(pyridine-4-sulfonyl)-3-trifluoromethyl-phenyl]-ethyl}-malonamide*trifluoro-acetic acid salt], the Ki worked out at 36 nM.

Consider `CC(NC(=O)CC(=O)Nc1ccc(C(=N)N)cc1)c1ccc(OCCCCO)c(C(F)(F)F)c1` (centres unmarked) [Example 51], for which the affinity corresponds to a Ki of 122 nM.

In the case of `CC(NC(=O)CC(=O)Nc1ccc(C(=N)N)cc1)c1ccc(S(=O)(=O)Cc2ccncc2)c(Cl)c1` (centres unmarked) [Example 67], affinity was put at a Ki of 588 nM.

Compound “N-(4-Carbamimidoyl-phenyl)-N′—[(S)-1-(3-trifluoromethanesulfonyl-phenyl)-ethyl]-malonamide*trifluoro-acetic acid salt [Example 77]” came in with a Ki of 99 nM.

Compound `C[C@H](NC(=O)CC(=O)Nc1ccc(C(=N)N)cc1)c1ccc(S(=O)(=O)N2CCOCC2)c(Br)c1` [Example 117] gave an inhibition constant (Ki) of 30 nM.

As to `C[C@H](NC(=O)CC(=O)Nc1ccc(C(=N)N)cc1)c1ccc(S(=O)(=O)N2CCOC[C@@H]2C)c(C(F)(F)F)c1` [Example 112], the Ki amounted to 29 nM.

Compound `CC(NC(=O)CC(=O)Nc1ccc(C(=N)N)cc1)c1ccc(OCCCN2CCCC2=O)c(C(F)(F)F)c1` (centres unmarked) [Example 44] came in with an inhibitory constant (Ki) of 78 nM.

For `Cc1ncsc1CCOc1ccc(C(C)NC(=O)CC(=O)Nc2ccc(C(=N)N)cc2)cc1Br` (centres unmarked) [Example 61], the Ki was found to be 87 nM.

In turn, `CC(C)OCCOc1ccc(C(C)NC(=O)CC(=O)Nc2ccc(C(=N)N)cc2)cc1C(F)(F)F` (centres unmarked) [Example 24] came in with a Ki of 61 nM.

Regarding `CC(NC(=O)CC(=O)Nc1ccc(C(=N)N)cc1)c1ccc(OCCCCCC(=O)O)c(Br)c1` (centres unmarked) [Example 3], the Ki is 169 nM.

On to `C[C@H](NC(=O)CC(=O)Nc1ccc(C(=N)N)cc1)c1ccc(OCCO)c(C(F)(F)F)c1` [Example 26], for which the affinity corresponds to a Ki of 47 nM.

Take `COCCOc1ccc([C@H](C)NC(=O)CC(=O)Nc2ccc(C(=N)N)cc2)cc1C(F)(F)F` [Example 10, N-(4-Carbamimidoyl-phenyl)-N′—{(S)-1-[4-(2-methoxy-ethoxy)-3-trifluoromethyl-phenyl]-ethyl}-malonamide]: affinity was put at a Ki of 24 nM.
